Here are results for 19 compounds from patent US12570642B2, “GLP-IR modulating compounds” (Gilead Sciences, Inc., priority 2021, dated 2026).

As a reminder, the EC50 is the midpoint of the concentration-response curve. Read a high EC50 as weaker potency.

Chain of GLP-1R (P43220 24-463): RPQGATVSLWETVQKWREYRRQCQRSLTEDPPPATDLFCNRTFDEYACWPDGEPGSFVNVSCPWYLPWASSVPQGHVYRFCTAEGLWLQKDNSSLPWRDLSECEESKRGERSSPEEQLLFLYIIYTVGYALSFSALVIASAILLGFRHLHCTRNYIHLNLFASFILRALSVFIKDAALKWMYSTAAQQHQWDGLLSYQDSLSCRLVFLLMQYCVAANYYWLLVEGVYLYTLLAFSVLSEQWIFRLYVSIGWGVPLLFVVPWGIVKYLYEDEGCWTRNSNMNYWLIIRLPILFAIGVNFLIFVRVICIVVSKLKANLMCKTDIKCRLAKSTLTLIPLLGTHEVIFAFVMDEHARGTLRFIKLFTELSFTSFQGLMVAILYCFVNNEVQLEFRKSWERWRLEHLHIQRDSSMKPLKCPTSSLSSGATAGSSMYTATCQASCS

The assay concerns the target GLP-1R (Homo sapiens, UniProt P43220). Nature of the assay: GLP-1R Activation - cAMP Assay. It is filed as cell-based. As to conditions: cAMP increase in CHO cells stably expressing GLP-1R; each compound run on one of the two cAMP assays (Assay 1 or Assay 2, not specified). In a few lines: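 CHO cells stably expressing GLP-1R, plated at 1,000 cells/well overnight, then equilibrated 1 h in HBSS with 20 mM Hepes and 0.1% BSA. Agonist added as 10-point dose response for 30 min at 37 °C. cAMP measured by HTRF (Cisbio Gs Dynamic kit); EC50 from sigmoidal fit.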
(Changes in cAMP serve as a functional read-out for many G protein-coupled receptors.)
As for `Cn1cc(-c2cc(F)c(COc3cccc(-c4cc(F)c(Cc5nc6ccc(C(=O)O)cc6n5[C@@H]5COCC5(C)C)cc4F)n3)cn2)nn1` [Example 555, (S)-2-(2,5-difluoro-4-(6-((4-fluoro-6-(1-methyl-1H-1,2,3-triazol-4-yl)pyridin-3-yl)methoxy)pyridin-2-yl)benzyl)-1-(4,4-dimethyltetrahydrofuran-3-yl)-1H-benzo[d]imidazole-6-carboxylic acid], a half-maximal effect (EC50) was put at 0.047 nM.

As for `COC[C@H]1COC[C@H]1n1c(Cc2cc(F)c(-c3cccc(OCc4ccc(C(F)(F)F)cc4)n3)cc2F)nc2ccc(C(=O)O)cc21` [Example 556, 2-(2,5-difluoro-4-(6-((4-(trifluoromethyl)benzyl)oxy)pyridin-2-yl)benzyl)-1-((3S,4S)-4-(methoxymethyl)tetrahydrofuran-3-yl)-1H-benzo[d]imidazole-6-carboxylic acid], the EC50 is 0.262 nM.

`CC1(C)COC[C@H]1n1c(Cc2cc(F)c(-c3ccc(F)c(OCc4ccc(F)cc4)n3)cc2F)nc2ccc(C(=O)O)cc21` [Example 557, (S)-2-(2,5-difluoro-4-(5-fluoro-6-((4-fluorobenzyl)oxy)pyridin-2-yl)benzyl)-1-(4,4-dimethyltetrahydrofuran-3-yl)-1H-benzo[d]imidazole-6-carboxylic acid] had an EC50 of 0.031 nM.

Compound `CC1(C)COC[C@H]1n1c(Cc2c(F)cc(-c3ccc(F)c(OCc4ccc(F)cc4)n3)c(F)c2F)nc2ccc(C(=O)O)cc21` [Example 558, (S)-1-(4,4-dimethyltetrahydrofuran-3-yl)-2-(2,3,6-trifluoro-4-(5-fluoro-6-((4-fluorobenzyl)oxy)pyridin-2-yl)benzyl)-1H-benzo[d]imidazole-6-carboxylic acid] came in with an EC50 of 0.132 nM.

`COC[C@H]1COC[C@H]1n1c(Cc2cc(F)c(-c3ccc(F)c(OCc4ccc(Cl)cc4F)c3)cc2F)nc2ccc(C(=O)O)cc21` [Example 559, 2-((3′-((4-chloro-2-fluorobenzyl)oxy)-2,4′,5-trifluoro-[1,1′-biphenyl]-4-yl)methyl)-1-((3S,4S)-4-(methoxymethyl)tetrahydrofuran-3-yl)-1H-benzo[d]imidazole-6-carboxylic acid] displayed a concentration for a half-maximal effect (EC50) of 0.195 nM.

In turn, `O=C(O)c1ccc2nc(Cc3cc(F)c(-c4cccc(OCc5cnc(-n6ccnn6)cc5Cl)n4)cc3F)n(CCOC(F)F)c2c1` [Example 560, 2-(4-(6-((4-chloro-6-(1H-1,2,3-triazol-1-yl)pyridin-3-yl)methoxy)pyridin-2-yl)-2,5-difluorobenzyl)-1-(2-(difluoromethoxy)ethyl)-1H-benzo[d]imidazole-6-carboxylic acid] had an EC50 of 0.192 nM.

`CC(C)OCCn1c(Cc2cc(F)c(-c3cccc(OCc4cnc(-n5ccnn5)cc4Cl)n3)cc2F)nc2ccc(C(=O)O)cc21` [Example 561, 2-(4-(6-((4-chloro-6-(1H-1,2,3-triazol-1-yl)pyridin-3-yl)methoxy)pyridin-2-yl)-2,5-difluorobenzyl)-1-(2-isopropoxyethyl)-1H-benzo[d]imidazole-6-carboxylic acid] returned an EC50 of 0.558 nM.

Take `O=C(O)c1ccc2nc(Cc3cc(F)c(-c4cccc(OCc5cnc(-n6ccnn6)cc5Cl)n4)cc3F)n(CCOC3CC3)c2c1` [Example 562, 2-(4-(6-((4-chloro-6-(1H-1,2,3-triazol-1-yl)pyridin-3-yl)methoxy)pyridin-2-yl)-2,5-difluorobenzyl)-1-(2-cyclopropoxyethyl)-1H-benzo[d]imidazole-6-carboxylic acid]: the midpoint of the response, the EC50, lay at 0.207 nM. Compared with the last compound, the EC50 is about 2.7-fold lower.

Compound `COC(C)(C)Cn1c(Cc2cc(F)c(-c3cccc(OCc4cnc(-n5ccnn5)cc4Cl)n3)cc2F)nc2ccc(C(=O)O)cc21` [Example 563, 2-(4-(6-((4-chloro-6-(1H-1,2,3-triazol-1-yl)pyridin-3-yl)methoxy)pyridin-2-yl)-2,5-difluorobenzyl)-1-(2-methoxy-2-methylpropyl)-1H-benzo[d]imidazole-6-carboxylic acid] showed an EC50 of 0.041 nM.

`CO[C@@H](C)[C@H](C)n1c(Cc2cc(F)c(-c3cccc(OCc4ccc(Cl)cc4F)n3)cc2F)nc2ccc(C(=O)O)cc21` [Example 564, 2-(4-(6-((4-chloro-2-fluorobenzyl)oxy)pyridin-2-yl)-2,5-difluorobenzyl)-1-((2S,3S)-3-methoxybutan-2-yl)-1H-benzo[d]imidazole-6-carboxylic acid]: the EC50 is 2.29 nM.

Turning to `CO[C@H](C)[C@@H](C)n1c(Cc2cc(F)c(-c3cccc(OCc4ccc(Cl)cc4F)n3)cc2F)nc2ccc(C(=O)O)cc21` [Example 565, 2-(4-(6-((4-chloro-2-fluorobenzyl)oxy)pyridin-2-yl)-2,5-difluorobenzyl)-1-((2R,3R)-3-methoxybutan-2-yl)-1H-benzo[d]imidazole-6-carboxylic acid], the EC50 was 0.194 nM. Against the preceding compound, the EC50 is about 12-fold lower.

Compound `CC(C)COCCn1c(Cc2cc(F)c(-c3cccc(OCc4ccc(Cl)cc4F)n3)cc2F)nc2ccc(C(=O)O)cc21` [Example 566, 2-(4-(6-((4-chloro-2-fluorobenzyl)oxy)pyridin-2-yl)-2,5-difluorobenzyl)-1-(2-isobutoxyethyl)-1H-benzo[d]imidazole-6-carboxylic acid] returned an EC50 of 4.09 nM. Compared with the last compound, the EC50 is about 21-fold higher.

`COCCn1c(Cc2cc(F)c(-c3cccc(OCc4cnc(-n5nc6c(n5)CCCC6)cc4Cl)n3)cc2F)nc2ccc(C(=O)O)cc21` [Example 567, 2-(4-(6-((4-chloro-6-(4,5,6,7-tetrahydro-2H-benzo[d][1,2,3]triazol-2-yl)pyridin-3-yl)methoxy)pyridin-2-yl)-2,5-difluorobenzyl)-1-(2-methoxyethyl)-1H-benzo[d]imidazole-6-carboxylic acid] registered a concentration giving a half-maximal response (EC50) of 100 nM. Against the preceding compound, the EC50 is about 24-fold higher.

`COCCn1c(Cc2cc(F)c(-c3cccc(OCc4cnc(-n5nnc6c5CCCC6)cc4Cl)n3)cc2F)nc2ccc(C(=O)O)cc21` [Example 568, 2-(4-(6-((4-chloro-6-(4,5,6,7-tetrahydro-1H-benzo[d][1,2,3]triazol-1-yl)pyridin-3-yl)methoxy)pyridin-2-yl)-2,5-difluorobenzyl)-1-(2-methoxyethyl)-1H-benzo[d]imidazole-6-carboxylic acid] yielded an EC50 of 1.56 nM.

Compound `CC(C)COCCn1c(Cc2cc(F)c(-c3cccc(OCc4cnc(-n5ccnn5)cc4Cl)n3)cc2F)nc2ccc(C(=O)O)cc21` [Example 569, 2-(4-(6-((4-chloro-6-(1H-1,2,3-triazol-1-yl)pyridin-3-yl)methoxy)pyridin-2-yl)-2,5-difluorobenzyl)-1-(2-isobutoxyethyl)-1H-benzo[d]imidazole-6-carboxylic acid] displayed a half-maximal effective concentration (EC50) of 0.987 nM.

The compound `CC(C)O[C@H]1COC[C@H]1n1c(Cc2cc(F)c(-c3cccc(OCc4ccc(Cl)cc4F)n3)cc2F)nc2ccc(C(=O)O)cc21` [Example 570, 2-(4-(6-((4-chloro-2-fluorobenzyl)oxy)pyridin-2-yl)-2,5-difluorobenzyl)-1-((3R,4R)-4-isopropoxytetrahydrofuran-3-yl)-1H-benzo[d]imidazole-6-carboxylic acid] yielded an EC50 of 0.955 nM.

Compound `CCO[C@H]1COC[C@H]1n1c(Cc2cc(F)c(-c3cccc(OCc4ccc(Cl)cc4F)n3)cc2F)nc2ccc(C(=O)O)cc21` [Example 571, 2-(4-(6-((4-chloro-2-fluorobenzyl)oxy)pyridin-2-yl)-2,5-difluorobenzyl)-1-((3R,4R)-4-ethoxytetrahydrofuran-3-yl)-1H-benzo[d]imidazole-6-carboxylic acid] showed an EC50 of 1.27 nM. The EC50 values of the last two compounds are within 1.5-fold of each other.

For the compound `CC1(C)COC[C@H]1n1c(Cc2c(F)cc(-c3ccnc(OCc4ccc(F)cc4)n3)c(F)c2F)nc2ccc(C(=O)O)cc21` [Example 574, (S)-1-(4,4-dimethyltetrahydrofuran-3-yl)-2-(2,3,6-trifluoro-4-(2-((4-fluorobenzyl)oxy)pyrimidin-4-yl)benzyl)-1H-benzo[d]imidazole-6-carboxylic acid], the EC50 is 0.457 nM.

Turning to `CC1(C)COC[C@H]1n1c(Cc2cc(F)c(-c3ccnc(OCc4ccc(F)cc4)n3)cc2F)nc2ccc(C(=O)O)cc21` [Example 575, (S)-2-(2,5-difluoro-4-(2-((4-fluorobenzyl)oxy)pyrimidin-4-yl)benzyl)-1-(4,4-dimethyltetrahydrofuran-3-yl)-1H-benzo[d]imidazole-6-carboxylic acid], the midpoint of the response, the EC50, lay at 0.186 nM.
